For assay [1], the system named is IL-2 release from stimulated Jurkat cells. In words: Human IL-2 Release Phenotypic Assay (Assay 3). Format: cell-based. To be noted: Homo sapiens, Jurkat, 48 h, Jurkat cells (clone E6-1), 200 ng/mL PMA + 300 ng/mL ionomycin, IL-2 by ELISA. On the procedure:
This assay measured the inhibition by MALT1 inhibitors of the IL-2 release from stimulated Jurkat cells, a human immortalized T lymphocyte cell line. IL-2 production from Jurkat cells is regulated by activation of NFκB signalling, which is in turn regulated by MALT1 protease activity.
Jurkat cells (clone E6-1, ATCC) were cultured in RPMI1640 supplemented with 10% (v/v) FBS and 1% (v/v) penicillin/streptomycin (100× liquid stocks). Cells were seeded in 96-well white tissue culture-treated plates (Perkin Elmer) at 50 000 cells/well and incubated overnight at 37° C., 5% CO2. Test compounds in DMSO at half-log dilutions were added to the cells and incubated for 30 mins. Final DMSO concentration was 0.5%. Cells were then stimulated with 200 ng/mL PMA+300 ng/mL ionomycin and incubated for 48 hours. […] IC50 values were calculated using GraphPad Prism using 4-parameter non-linear regression curve fit.

The next assay concerns the target T1, FL hMALT1 enzyme (Homo sapiens, UniProt Q9UDY8).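 Note: Cell-free protease assay: enzyme preincubated with compound 30 min at room temperature, then cleavage of fluorogenic Ac-LVSR-AMC substrate (100 µM) tracked by fluorescence (ex 360/em 460 nm).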
T1 sequence (Q9UDY8 1-824): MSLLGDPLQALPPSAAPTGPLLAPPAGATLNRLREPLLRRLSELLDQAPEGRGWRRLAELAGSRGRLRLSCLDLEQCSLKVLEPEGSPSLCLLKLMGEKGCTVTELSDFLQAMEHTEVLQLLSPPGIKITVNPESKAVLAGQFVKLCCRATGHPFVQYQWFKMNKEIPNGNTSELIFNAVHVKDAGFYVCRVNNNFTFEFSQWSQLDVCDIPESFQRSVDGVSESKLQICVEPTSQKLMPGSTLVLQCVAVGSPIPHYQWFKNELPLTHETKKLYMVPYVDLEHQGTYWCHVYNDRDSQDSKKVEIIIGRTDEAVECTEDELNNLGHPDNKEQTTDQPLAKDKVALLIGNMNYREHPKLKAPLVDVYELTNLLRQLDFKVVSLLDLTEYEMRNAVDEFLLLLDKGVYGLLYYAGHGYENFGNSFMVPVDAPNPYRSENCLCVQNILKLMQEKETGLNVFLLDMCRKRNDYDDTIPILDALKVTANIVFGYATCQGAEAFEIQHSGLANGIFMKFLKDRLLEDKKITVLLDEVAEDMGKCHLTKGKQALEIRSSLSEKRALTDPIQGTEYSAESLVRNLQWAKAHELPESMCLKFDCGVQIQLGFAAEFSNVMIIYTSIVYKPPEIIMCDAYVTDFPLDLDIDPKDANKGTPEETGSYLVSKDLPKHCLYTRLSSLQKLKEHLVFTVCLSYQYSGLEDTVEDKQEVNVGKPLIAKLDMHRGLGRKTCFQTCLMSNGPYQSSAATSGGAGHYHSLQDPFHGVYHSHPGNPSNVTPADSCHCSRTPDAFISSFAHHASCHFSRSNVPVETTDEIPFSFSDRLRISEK
In words: biochemical.

Experimental findings from US20260184687A1, “DIHYDROINDENE DERIVATIVES AS MALT1 INHIBITORS” (C4X Discovery Limited, priority 2022, published 2026) are described below.

SMILES strings stand for the structures.

A word on the IC50: it is the point on the concentration scale where inhibition reaches its midpoint.

Method for FL hMALT1 enzyme: MALT1 protease activity was assessed in vitro by measuring the cleavage of a fluorogenic tetrapeptide substrate.
For a higher sensitivity assay, commercially available FL hMALT1 enzyme (Abcam, 1-10 nM) was incubated with substrate (Ac-LVSR-AMC, 100 μM) in reaction buffer comprising 50 mM HEPES (pH7.0), 25 mM KCl, 0.1% (v/v) CHAPS, 1 mM TCEP and 0.7 M sodium citrate.
Test compounds dissolved in DMSO were dispensed into assay plates (384-well, black, shallow ProxiPlates). 7 μl enzyme solution was added and incubated at room temperature for 30 minutes to allow compound binding to occur. 2 μl substrate solution was then added and the fluorescence (excitation 360 nm, emission 460 nm) read every 15 minutes using a suitable plate reader. Final assay DMSO concentration was 1%. […] IC50 values were calculated using GraphPad Prism using a 4-parameter non-linear regression curve fit.

In the case of `CN(C(=O)[C@@H]1CNC(=O)C1)[C@@H](c1ccc(N[C@H]2Cc3ccc(Cl)cc3C2)cn1)C(F)(F)F` [Example 300, (S)—N—((S)-1-(5-(((S)-5-Chloro-2,3-dihydro-1H-inden-2-yl)amino)pyridin-2-yl)-2,2,2-trifluoroethyl)-N-methyl-5-oxopyrrolidine-3-carboxamide], the 50% inhibitory concentration (IC50) in assay [1] was determined as 350 nM.
The same measure, in the same setting: the same measure for `CN(C(=O)C1CCN(S(C)(=O)=O)CC1)[C@@H](c1ccc(N[C@H]2Cc3ccccc3C2(C)C)cn1)C(F)(F)F` [Example 223, N—((S)-1-(5-(((S)-1,1-Dimethyl-2,3-dihydro-1H-inden-2-yl)amino)pyridin-2-yl)-2,2,2-trifluoroethyl)-N-methyl-1-(methylsulfonyl)piperidine-4-carboxamide]: 150 nM; for `CN(C(=O)[C@@H]1CCC(=O)N1)[C@@H](c1ccc(N[C@H]2Cc3ccccc3C2(C)C)cn1)C(F)(F)F` [Example 170, (S)—N—((S)-1-(5-(((S)-1,1-Dimethyl-2,3-dihydro-1H-inden-2-yl)amino)pyridin-2-yl)-2,2,2-trifluoroethyl)-N-methyl-5-oxopyrrolidine-2-carboxamide]: 210 nM.
On FL hMALT1 enzyme, `CN(C(=O)[C@@H]1CC[C@H](NC(=O)C(F)(F)F)C1)[C@@H](c1ccc(N[C@H]2Cc3ccccc3C2(C)C)cn1)C(F)(F)F` [Example 184, (1R,3S)—N—((S)-1-(5-(((S)-1,1-Dimethyl-2,3-dihydro-1H-inden-2-yl)amino)pyridin-2-yl)-2,2,2-trifluoroethyl)-N-methyl-3-(2,2,2-trifluoroacetamido)cyclopentane-1-carboxamide] yielded a concentration for half-maximal inhibition (IC50) of 150 nM.
Still for that read-out and setting: the same measure for `CN(C(=O)C1CCS(=O)(=O)CC1)[C@@H](c1ccc(N[C@@H]2Cc3ccc(Cl)cc3C2)cn1)C(F)(F)F` (single isomer, unassigned) [Example 200]: 1100 nM; for `CN(C(=O)C1CCS(=O)(=O)CC1)[C@@H](c1ccc(NC2Cc3cc(Cl)cc(Cl)c3C2)cn1)C(F)(F)F` (single isomer, unassigned) [Example 282]: 340 nM.
Still for that read-out and setting: with `CN(C(=O)[C@H]1CNC(=O)C1)[C@@H](c1ccc(NC2Cc3ccc(Cl)c(F)c3C2)nc1)C(F)(F)F` (single isomer, unassigned) [Example 338] the figure was 960 nM.
On the same count and under the same terms, with `CN(C(=O)C1CCS(=O)(=O)CC1)[C@@H](c1ccc(NC2Cc3cc(F)c(Br)cc3C2)cn1)C(F)(F)F` (stereo partly drawn) [Example 310, N-((1S)-1-(5-((5-Bromo-6-fluoro-2,3-dihydro-1H-inden-2-yl)amino)pyridin-2-yl)-2,2,2-trifluoroethyl)-N-methyltetrahydro-2H-thiopyran-4-carboxamide 1,1-dioxide] the figure was 430 nM.
As for `CN(C(=O)C1CN2CCC1CC2)[C@@H](c1ccc(NC2Cc3ccccc3C2(C)C)nc1)C(F)(F)F` (single isomer, unassigned) [Example 120], the IC50 at FL hMALT1 enzyme is 770 nM.
Same read-out and setting: with `CN(C(=O)C1CN(C(=O)C2CCOC2)C1)[C@@H](c1ccc(NC2Cc3ccc(Cl)c(Cl)c3C2)cn1)C(F)(F)F` (single isomer, unassigned) [Example 351] the figure was 590 nM.
Same read-out and setting: the same measure for `CN(C(=O)C1CCS(=O)(=O)CC1)[C@@H](c1ccc(NC2Cc3ccc(Cl)cc3C2)nc1)C(F)(F)F` (single isomer, unassigned) [Example 288]: 1640 nM.
Same read-out and setting: with `CN(C(=O)C1CCS(=O)(=O)CC1)[C@@H](c1ccc(NC2Cc3ccc(F)cc3C2)cn1)C(F)(F)F` (single isomer, unassigned) [Example 259] the figure was 180 nM; with `CN(C(=O)C1CCS(=O)(=O)CC1)[C@@H](c1ccc(NC2Cc3cc(F)c(F)c(F)c3C2)cn1)C(F)(F)F` (single isomer, unassigned) [Example 295], 1900 nM; with `CN(C(=O)C1CCS(=O)(=O)CC1)[C@@H](c1ccc(NC2Cc3cc(F)cc(F)c3C2)cn1)C(F)(F)F` (single isomer, unassigned) [Example 268], 3400 nM.
On FL hMALT1 enzyme, `CN(C(=O)[C@H]1CCC(=O)NC1)[C@@H](c1ccc(NC2Cc3ccc(Cl)c(F)c3C2)nc1)C(F)(F)F` (single isomer, unassigned) [Example 389] yielded an IC50 of 40 nM.
Still for that read-out and setting: with `CN(C(=O)C1CN(C(=O)C2CCO2)C1)[C@@H](c1ccc(NC2Cc3ccc(Cl)c(F)c3C2)cn1)C(F)(F)F` (single isomer, unassigned) [Example 387] the figure was 310 nM; with `CN(C(=O)C1CCS(=O)(=O)CC1)[C@@H](c1ccc(NC2Cc3ccc(C4CC4)cc3C2)cn1)C(F)(F)F` (single isomer, unassigned) [Example 308], 1400 nM; with `CN(C(=O)C1CCS(=O)(=O)CC1)[C@@H](c1ccc(NC2Cc3cc(F)cc(Cl)c3C2)cn1)C(F)(F)F` (single isomer, unassigned) [Example 286], 730 nM.
`CN(C(=O)C1CN2CCC1CC2)[C@@H](c1ccc(NC2Cc3ccccc3C2(C)C)nc1)C(F)(F)F` (single isomer, unassigned) [Example 121] registered an IC50 at FL hMALT1 enzyme of 510 nM.
For `CN(C(=O)CO)[C@@H](c1ccc(NC2Cc3ccc(Cl)c(F)c3C2)cn1)C(F)(F)F` (single isomer, unassigned) [Example 366], on FL hMALT1 enzyme, the IC50 was found to be 3660 nM.
The same measure, in the same setting: with `CC(=O)N[C@H]1CC[C@@H](C(=O)N(C)[C@@H](c2ccc(N[C@@H]3Cc4ccccc4C3(C)C)cn2)C(F)(F)F)C1` [Example 204, (1R,3S)-3-Acetamido-N—((S)-1-(5-(((R)-1,1-dimethyl-2,3-dihydro-1H-inden-2-yl)amino)pyridin-2-yl)-2,2,2-trifluoroethyl)-N-methylcyclopentane-1-carboxamide] the figure was 220 nM; with `CN(C(=O)C1CCS(=O)(=O)CC1)[C@@H](c1ccc(NC2Cc3ccc(Cl)c(Cl)c3C2)nc1)C(F)(F)F` (single isomer, unassigned) [Example 345], 7 nM.
In turn, `CN(C(=O)C1CCS(=O)(=O)CC1)[C@@H](c1ccc(NC2Cc3cc(Cl)cc(F)c3C2)cn1)C(F)(F)F` (single isomer, unassigned) [Example 271] displayed an IC50 at FL hMALT1 enzyme of 3300 nM.
The same measure, in the same setting: with `CN(C(=O)C1CCS(=O)(=O)CC1)[C@@H](c1ccc(NC2Cc3ccc(C(F)(F)F)cc3C2)cn1)C(F)(F)F` (single isomer, unassigned) [Example 255] the figure was 110 nM; with `CN(C(=O)C1CCS(=O)(=O)CC1)[C@@H](c1ccc(NC2Cc3ccc(Cl)c(F)c3C2)nc1)C(F)(F)F` (single isomer, unassigned) [Example 331], 400 nM; with `CN(C(=O)C1CCS(=O)(=O)CC1)[C@@H](c1ccc(NC2Cc3ccc(Cl)c(Cl)c3C2)cn1)C(F)(F)F` (single isomer, unassigned) [Example 278], 350 nM.
Take `CN(C(=O)C1C2CS(=O)(=O)CC21)[C@@H](c1ccc(NC2Cc3ccccc3C2(C)C)cn1)C(F)(F)F` (single isomer, unassigned) [Example 217]: the 50% inhibitory concentration (IC50) on FL hMALT1 enzyme stood at 170 nM.
Still for that read-out and setting: with `CN(C(=O)C1CCNCC1)[C@@H](c1ccc(NC2Cc3ccccc3C2(C)C)nc1)C(F)(F)F` (single isomer, unassigned) [Example 148] the figure was 290 nM.
Same read-out and setting: the same measure for `CN1CCC(C(=O)N(C)[C@@H](c2ccc(NC3Cc4ccccc4C3(C)C)nc2)C(F)(F)F)CC1` (single isomer, unassigned) [Example 145]: 230 nM; for `CN(C(=O)C1CCS(=O)(=O)CC1)[C@@H](c1ccc(NC2Cc3ccc(Br)cc3C2)cn1)C(F)(F)F` (single isomer, unassigned) [Example 285]: 690 nM.
